Where “and” joins values, the source holds several entries; their conditions need not be identical. Equal entries are not always repeated.
Target: T1, human GPR40 (Homo sapiens, UniProt O14842)
T1 construct: expressed in transfected cells
Experiment: GPR40 calcium flux assay (hGPR40 Ca2+ Assay)
Format: cell-based
Settings: transfected HEK293 cells stably expressing human GPR40; Fluo 8 calcium dye; multiple values = repeated testing; read-out: hGPR40 Ca^2+ Assay EC50
Method: Compounds were tested in a calcium flux assay using transfected HEK293 cells stably expressing either human GPR40 or rat GPR40. Human GPR40 expressing cells were cultured in DMEM-High Glucose media supplemented with 10% fetal bovine serum, 1× L-Glutamine, 1× Penicillin/Streptomycin and 500 μg/mL G418. Rat GPR40 expressing cells were cultured in DMEM-High Glucose media supplemented with 10% fetal bovine serum and 1 μg/mL puromycin. Cells were plated into poly-D-lysine coated 384-well plates and cultured overnight in a 37° C. humidified tissue culture incubator under 5% CO2/[…] atmosphere. On the day of the experiment, the culture media was replaced with assay buffer (HBSS, 20 mM HEPES, 0.1% BSA) and the cells incubated at 37° C. for 1 h. Calcium-sensitive fluorescent dye (Fluo 8 No-Wash Calcium Dye, ABD Bioquest) was then added and the cells incubated for another 30 min at 37° C. followed by 15 min at room temperature while protected from the light. The cell plate and a plate of diluted compounds of Formula (III) were loaded into a fluorescent plate reader that added compounds onto the cells while measuring the fluorescence intensity of each well. The plate reader recorded fluorescence intensity at 1 second intervals for 8 min and provided the data for analysis in an Excel format. EC50 values were calculated using Prism (GraphPad) software.

T1 sequence (O14842 whole entry): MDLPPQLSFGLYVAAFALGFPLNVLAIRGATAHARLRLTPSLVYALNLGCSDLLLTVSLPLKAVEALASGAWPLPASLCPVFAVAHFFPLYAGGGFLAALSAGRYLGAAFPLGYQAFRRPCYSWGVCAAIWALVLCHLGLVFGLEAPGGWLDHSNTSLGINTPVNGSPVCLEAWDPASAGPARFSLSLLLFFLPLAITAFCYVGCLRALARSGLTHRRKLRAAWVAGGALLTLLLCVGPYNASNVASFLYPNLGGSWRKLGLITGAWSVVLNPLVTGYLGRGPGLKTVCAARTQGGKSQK

Compound: COc1ccc(F)c(-n2nnc(COc3cc(C(CC(=O)O)C4CC4)ccn3)c2C2=CCCC2(C)C)c1 (racemic) [Cpd 63, 3-cyclopropyl-3-[2-[[5-(5,5-dimethylcyclopenten-1-yl)-1-(2-fluoro-5-methoxy-phenyl)triazol-4-yl]methoxy]-4-pyridyl]propanoic acid]
- EC50: 1 nM

Compound: COc1ccc(F)c(-n2nnc(COc3cccc([C@@H](CC(=O)O)C4CC4)c3)c2N2CCCCC2)c1 [Cpd 44, (3S)-3-cyclopropyl-3-[3-[[1-(2-fluoro-5-methoxy-phenyl)-5-(1-piperidyl)triazol-4-yl]methoxy]phenyl]propanoic acid]
- EC50: 14 nM

Compound: COc1ccc(F)c(-n2nnc(COc3cc([C@@H](CC(=O)O)C4CC4)ccn3)c2C2=CCCC2(C)C)c1 [Cpd 64, (3S)-3-cyclopropyl-3-[2-[[5-(5,5-dimethylcyclopenten-1-yl)-1-(2-fluoro-5-methoxy-phenyl)triazol-4-yl]methoxy]-4-pyridyl]propanoic acid]
- EC50: 1 nM

Compound: COc1ccc(F)c(-n2ncc(COc3cc(C(CC(=O)O)C4CC4)ccn3)c2C2=CCCC2(C)C)c1 (centres unmarked) [Cpd 65, 3-cyclopropyl-3-[2-[[5-(5,5-dimethylcyclopenten-1-yl)-1-(2-fluoro-5-methoxy-phenyl)pyrazol-4-yl]methoxy]-4-pyridyl]propanoic acid]
- EC50: 1 nM

Compound: COc1ccc(F)c(-n2ncc(COc3cccc([C@@H](CC(=O)O)C4CC4)c3)c2C2=CCCC2(C)C)c1 [Cpd 66, (3S)-3-cyclopropyl-3-[3-[[5-(5,5-dimethylcyclopenten-1-yl)-1-(2-fluoro-5-methoxy-phenyl)pyrazol-4-yl]methoxy]phenyl]propanoic acid]
- EC50: 2 nM and 1 nM

Compound: COc1ccc(F)c(-n2nnc(COc3cccc([C@@H](CC(=O)O)C4CC4)c3)c2OC2CCCC2)c1 [Cpd 67, (3S)-3-[3-[[5-(cyclopentoxy)-1-(2-fluoro-5-methoxy-phenyl)triazol-4-yl]methoxy]phenyl]-3-cyclopropyl-propanoic acid]
- EC50: 6 nM and 10 nM (2×)

Compound: COc1ccc(F)c(-n2nnc(COc3cccc([C@@H](CC(=O)O)C4CC4)c3)c2N2CC3(CCC3)C2)c1 [Cpd 68, (3S)-3-[3-[[5-(6-azaspiro[3.3]heptan-6-yl)-1-(2-fluoro-5-methoxy-phenyl)triazol-4-yl]methoxy]phenyl]-3-cyclopropyl-propanoic acid]
- EC50: 7 nM and 12 nM and 11 nM

Compound: COc1ccc(F)c(-n2ncc(COc3cccc([C@@H](CC(=O)O)C4CC4)c3)c2C2CC2)c1 [Cpd 69, (3S)-3-cyclopropyl-3-[3-[[5-cyclopropyl-1-(2-fluoro-5-methoxy-phenyl)pyrazol-4-yl]methoxy]phenyl]propanoic acid]
- EC50: 15 nM and 21 nM and 17 nM

Compound: COc1cc(-n2ncc(COc3cccc([C@@H](CC(=O)O)C4CC4)c3)c2C2CC2)c(F)cn1 [Cpd 70, (3S)-3-cyclopropyl-3-[3-[[5-cyclopropyl-1-(5-fluoro-2-methoxy-4-pyridyl)pyrazol-4-yl]methoxy]phenyl]propanoic acid]
- EC50: 16 nM

Compound: COc1ccc(F)c(-n2ncc(COc3cc(C(CC(=O)O)C4CC4)c(Cl)cn3)c2C2=CCCC2(C)C)c1 (centres unmarked) [Cpd 71, 3-[5-chloro-2-[[5-(5,5-dimethylcyclopenten-1-yl)-1-(2-fluoro-5-methoxy-phenyl)pyrazol-4-yl]methoxy]-4-pyridyl]-3-cyclopropyl-propanoic acid]
- EC50: 24 nM

Compound: COc1ccc(F)c(-n2cc(COc3cccc([C@@H](CC(=O)O)C4CC4)c3)cn2)c1 [Cpd 72, (3S)-3-cyclopropyl-3-[3-[[1-(2-fluoro-5-methoxy-phenyl)pyrazol-4-yl]methoxy]phenyl]propanoic acid]
- EC50: 24 nM and 45 nM and 39 nM

Compound: COc1ccc(F)c(-n2ncc(COc3cccc([C@@H](CC(=O)O)C4CC4)c3)c2N2CCOCC2)c1 [Cpd 73, (3S)-3-cyclopropyl-3-[3-[[1-(2-fluoro-5-methoxy-phenyl)-5-morpholino-pyrazol-4-yl]methoxy]phenyl]propanoic acid]
- EC50: 27 nM

Compound: COc1ccc(F)c(-n2nnc(/C=C/c3cccc([C@@H](CC(=O)O)C4CC4)c3)c2C2CC2)c1 [Cpd 74, (3S)-3-cyclopropyl-3-[3-[(E)-2-[5-cyclopropyl-1-(2-fluoro-5-methoxy-phenyl)triazol-4-yl]vinyl]phenyl]propanoic acid]
- EC50: 38 nM

Compound: COc1ccc(F)c(-n2nnc(COc3cc([C@H](CC(=O)O)C4CC4)ccn3)c2C2=CCCC2(C)C)c1 [Cpd 75, (3R)-3-cyclopropyl-3-[2-[[5-(5,5-dimethylcyclopenten-1-yl)-1-(2-fluoro-5-methoxy-phenyl)triazol-4-yl]methoxy]-4-pyridyl]propanoic acid]
- EC50: 60 nM

Compound: COc1ccc(F)c(-n2ncc(/C=C/c3cccc(C(CC(=O)O)C4CC4)c3)c2C2CC2)c1 (centres unmarked) [Cpd 76, 3-cyclopropyl-3-[3-[(E)-2-[5-cyclopropyl-1-(2-fluoro-5-methoxy-phenyl)pyrazol-4-yl]vinyl]phenyl]propanoic acid]
- EC50: 66 nM

Compound: COc1ccc(F)c(-n2ncc(CCc3cccc(C(CC(=O)O)C4CC4)c3)c2C2CC2)c1 (centres unmarked) [Cpd 77, 3-cyclopropyl-3-[3-[2-[5-cyclopropyl-1-(2-fluoro-5-methoxy-phenyl)pyrazol-4-yl]ethyl]phenyl]propanoic acid]
- EC50: 66 nM

Compound: COc1ccc(F)c(-n2nnc(COc3cc(C(CC(=O)O)C4CC4)c(Cl)cn3)c2C2=CCCC2(C)C)c1 (centres unmarked) [Cpd 78, 3-[5-chloro-2-[[5-(5,5-dimethylcyclopenten-1-yl)-1-(2-fluoro-5-methoxy-phenyl)triazol-4-yl]methoxy]-4-pyridyl]-3-cyclopropyl-propanoic acid]
- EC50: 69 nM

Compound: COc1ccc(F)c(-n2nnc(CCc3cccc([C@@H](CC(=O)O)C4CC4)c3)c2C2CC2)c1 [Cpd 79, (3S)-3-cyclopropyl-3-[3-[2-[5-cyclopropyl-1-(2-fluoro-5-methoxy-phenyl)triazol-4-yl]ethyl]phenyl]propanoic acid]
- EC50: 103 nM

Compound: COc1ccc(F)c(-n2nnc(COc3cccc([C@@H](CC(=O)O)C4CC4)c3)c2N2CCOCC2)c1 [Cpd 80, (3S)-3-cyclopropyl-3-[3-[[1-(2-fluoro-5-methoxy-phenyl)-5-morpholino-triazol-4-yl]methoxy]phenyl]propanoic acid]
- EC50: 273 nM

Compound: COc1ccc(F)c(-n2nnc(COc3cccc([C@@H](CC(=O)O)C4CC4)c3)c2C)c1 [Cpd 82, (3S)-3-cyclopropyl-3-[3-[[1-(2-fluoro-5-methoxy-phenyl)-5-methyl-triazol-4-yl]methoxy]phenyl]propanoic acid]
- EC50: 261 nM and 248 nM

Compound: COc1ccc(F)c(-n2nnc(COc3cccc([C@@H](CC(=O)O)C4CC4)c3)c2CC(C)C)c1 [Cpd 83, (3S)-3-cyclopropyl-3-[3-[[1-(2-fluoro-5-methoxy-phenyl)-5-isobutyl-triazol-4-yl]methoxy]phenyl]propanoic acid]
- EC50: 7 nM and 6 nM

Compound: COc1ccc(F)c(-n2nnc(COc3cccc([C@@H](CC(=O)O)C4CC4)c3)c2C=C(C)C)c1 [Cpd 84, (3S)-3-cyclopropyl-3-[3-[[1-(2-fluoro-5-methoxy-phenyl)-5-(2-methylprop-1-enyl)triazol-4-yl]methoxy]phenyl]propanoic acid]
- EC50: 38 nM and 31 nM and 37 nM (2×)

Compound: COc1ccc(F)c(-n2nnc(COc3cccc([C@@H](CC(=O)O)C4CC4)c3)c2C2CC2)c1 [Cpd 85, (3S)-3-cyclopropyl-3-[3-[[5-cyclopropyl-1-(2-fluoro-5-methoxy-phenyl)triazol-4-yl]methoxy]phenyl]propanoic acid]
- EC50: 65 nM and 63 nM

Compound: COc1ccc(F)c(-n2nnc(COc3cccc([C@@H](CC(=O)O)C4CC4)c3)c2C2=CCCC2(C)C)c1 [Cpd 86, (3S)-3-cyclopropyl-3-[3-[[5-(5,5-dimethylcyclopenten-1-yl)-1-(2-fluoro-5-methoxy-phenyl)triazol-4-yl]methoxy]phenyl]propanoic acid]
- EC50: 4 nM and 2 nM

Compound: COc1ccc(F)c(-n2cnc(COc3cccc([C@@H](CC(=O)O)C4CC4)c3)c2C2=CCCC2(C)C)c1 [Cpd 87, (3S)-3-cyclopropyl-3-[3-[[5-(5,5-dimethylcyclopenten-1-yl)-1-(2-fluoro-5-methoxy-phenyl)imidazol-4-yl]methoxy]phenyl]propanoic acid]
- EC50: 85 nM and 68 nM

Compound: COc1ccc(F)c(-n2nnc(COc3cccc([C@@H](CC(=O)O)C4CC4)c3)c2-c2ccc(C)s2)c1 [Cpd 88, (3S)-3-cyclopropyl-3-[3-[[1-(2-fluoro-5-methoxy-phenyl)-5-(5-methyl-2-thienyl)triazol-4-yl]methoxy]phenyl]propanoic acid]
- EC50: 24 nM and 23 nM

Compound: COc1ccc(F)c(-n2ncc(COc3cccc([C@@H](CC(=O)O)C4CC4)c3)c2C=C(C)C)c1 [Cpd 89, (3S)-3-cyclopropyl-3-[3-[[1-(2-fluoro-5-methoxy-phenyl)-5-(2-methylprop-1-enyl)pyrazol-4-yl]methoxy]phenyl]propanoic acid]
- EC50: 11 nM and 9 nM

Compound: COc1ccc(F)c(-n2ncc(COc3cccc([C@@H](CC(=O)O)C4CC4)c3)c2Br)c1 [Cpd 90, (3S)-3-[3-[[5-bromo-1-(2-fluoro-5-methoxy-phenyl)pyrazol-4-yl]methoxy]phenyl]-3-cyclopropyl-propanoic acid]
- EC50: 86 nM and 83 nM

Compound: COc1ccc(F)c(-n2cnc(COc3cccc([C@@H](CC(=O)O)C4CC4)c3)c2C=C(C)C)c1 [Cpd 91, (3S)-3-cyclopropyl-3-[3-[[1-(2-fluoro-5-methoxy-phenyl)-5-(2-methylprop-1-enyl)imidazol-4-yl]methoxy]phenyl]propanoic acid]
- EC50: 477 nM and 413 nM
